Source: patent USH505H, “Boron uptake in tumors, cerebrum and blood from [10B]NA4B24H22S2” (The United States of America as represented by the United …, priority 1986, dated 1988)

Test system: Harding-Passey (HP) melanomas
Assay: Boron concentrations in melanoma tumor, blood and cerebrum of mice after intraperitoneal administration (prompt gamma analysis)
Parameters: species or system female BALB/cJ mice
Conditions: mouse, in vivo, ip
Experimental: Aqueous solutions of [^10 B]Na2 B12 H11 SH or [^10 B]Na4 B24 H22 S2 were infused slowly intraperitoneally [~200 μl capacity osmotic pump, model 2001, Alza Corp., Palo Alto, Calif.] or were injected intraperitoneally promptly into 15-20 g female BALB/cJ mice bearing subcutaneously implanted Harding-Passey (HP) melanomas. In experiment 6 (Table 1), 5.3×10^-3 M Na2 S2 O5 was added to retard oxidation of [B12 H11 SH]^2-. Mice were deeply anesthetized with ether and then killed by exsanguination at times specified in Table 1. The osmotic pumps were designed to function for 219±6 hr, although the precise duration of their infusion in each mouse is unknown.
Tissue and blood specimens in quartz test tubes, with sufficient H2 O added to bring each sample to a total weight of 1.00 g, were analyzed for boron by counting 478 keV gamma photons from the ^10 B(n,αγ)^7 Li reaction during irradiation by slow neutrons.

Na2 B12 H11 SH
Blood boron concentration (34.5 mg/kg, 24 h): 6.3 ± 2.2 μgB/g
Cerebrum boron concentration (34.5 mg/kg, 24 h): 4.9 ± 3.8 μgB/g
Concentration ratio Tumor:Blood (34.5 mg/kg, 24 h): 1.0
Tumor boron concentration (34.5 mg/kg, 24 h): 6.3 ± 2.2 μgB/g
Blood boron concentration (35.4 mg/kg, 6 h): 3.8 ± 9.9 μgB/g
Cerebrum boron concentration (35.4 mg/kg, 6 h): 3.8 ± 3.4 μgB/g
Concentration ratio Tumor:Blood (35.4 mg/kg, 6 h): 2.3
Tumor boron concentration (35.4 mg/kg, 6 h): 8.7 ± 9.9 μgB/g
Blood boron concentration (35.5 mg/kg, 12 h): 5.5 ± 4.8 μgB/g
Cerebrum boron concentration (35.5 mg/kg, 12 h): 0.9 ± 1.6 μgB/g
Concentration ratio Tumor:Blood (35.5 mg/kg, 12 h): 1.0
Tumor boron concentration (35.5 mg/kg, 12 h): 5.5 ± 4.8 μgB/g
Blood boron concentration (187 mg/kg, 190 h): 13.2 ± 6.3 μgB/g
Cerebrum boron concentration (187 mg/kg, 190 h): 7.0 μgB/g
Concentration ratio Tumor:Blood (187 mg/kg, 190 h): 1.0
Tumor boron concentration (187 mg/kg, 190 h): 12.6 ± 1.7 μgB/g
Blood boron concentration (187 mg/kg, 219 h): 4.9 ± 1.1 μgB/g
Cerebrum boron concentration (187 mg/kg, 219 h): 1.0 ± 0.4 μgB/g
Concentration ratio Tumor:Blood (187 mg/kg, 219 h): 1.6
Tumor boron concentration (187 mg/kg, 219 h): 7.9 ± 1.5 μgB/g
Blood boron concentration (195 mg/kg, 219 h): 5.5 ± 3.0 μgB/g
Cerebrum boron concentration (195 mg/kg, 219 h): 1.2 ± 1.0 μgB/g
Concentration ratio Tumor:Blood (195 mg/kg, 219 h): 1.5
Tumor boron concentration (195 mg/kg, 219 h): 8.5 ± 2.9 μgB/g
Blood boron concentration (262 mg/kg, 234 h): 7.7 ± 4.6 μgB/g
Cerebrum boron concentration (262 mg/kg, 234 h): 3.2 ± 0.0 μgB/g
Concentration ratio Tumor:Blood (262 mg/kg, 234 h): 1.8
Tumor boron concentration (262 mg/kg, 234 h): 14.1 ± 1.1 μgB/g
